Source: ChEMBL document CHEMBL1146847, “Design and synthesis of potent, non-peptidic inhibitors of HPTPbeta” (Bioorg Med Chem Lett, 2006)

Legend:
[1] = target: Receptor-type tyrosine-protein phosphatase beta (Homo sapiens, UniProt P23467)
[2] = target: T1, Tyrosine-protein phosphatase non-receptor type 1 (Homo sapiens, UniProt P18031); assay: Inhibition of PTP1B
T1 sequence (P18031 whole entry): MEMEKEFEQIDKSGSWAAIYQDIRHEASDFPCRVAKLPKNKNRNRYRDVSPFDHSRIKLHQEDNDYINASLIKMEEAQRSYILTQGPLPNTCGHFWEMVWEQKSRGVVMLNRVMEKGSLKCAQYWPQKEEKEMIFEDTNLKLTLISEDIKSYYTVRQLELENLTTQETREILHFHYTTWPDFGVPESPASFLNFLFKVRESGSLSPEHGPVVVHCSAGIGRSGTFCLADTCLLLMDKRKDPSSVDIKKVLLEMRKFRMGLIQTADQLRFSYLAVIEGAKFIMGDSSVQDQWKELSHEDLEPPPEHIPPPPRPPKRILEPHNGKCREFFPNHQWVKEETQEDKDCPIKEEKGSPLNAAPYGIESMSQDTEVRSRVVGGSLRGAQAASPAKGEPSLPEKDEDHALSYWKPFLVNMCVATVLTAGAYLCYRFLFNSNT

[3] = target: T2, Low molecular weight phosphotyrosine protein phosphatase (Homo sapiens, UniProt P24666); assay: Inhibition of HCPTPA
T2 sequence (P24666 whole entry): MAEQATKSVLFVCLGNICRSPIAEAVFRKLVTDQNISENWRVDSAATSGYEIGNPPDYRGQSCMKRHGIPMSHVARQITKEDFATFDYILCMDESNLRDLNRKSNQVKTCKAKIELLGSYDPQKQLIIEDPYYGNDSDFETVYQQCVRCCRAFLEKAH

[4] = target: Receptor-type tyrosine-protein phosphatase epsilon (Homo sapiens, UniProt P23469); assay: Inhibition of HPTP epsilon
[5] = target: T3, Receptor-type tyrosine-protein phosphatase F (Homo sapiens, UniProt P10586); assay: Inhibition of LAR1
[6] = target: T3, Receptor-type tyrosine-protein phosphatase F; assay: Inhibition of LAR2
[7] = target: Receptor-type tyrosine-protein phosphatase gamma (Homo sapiens, UniProt P23470); assay: Inhibition of PTP gamma
[8] = target: T4, Tyrosine-protein phosphatase non-receptor type 2 (Homo sapiens, UniProt P17706); assay: Inhibition of TCPTP38
T4 sequence (P17706 whole entry): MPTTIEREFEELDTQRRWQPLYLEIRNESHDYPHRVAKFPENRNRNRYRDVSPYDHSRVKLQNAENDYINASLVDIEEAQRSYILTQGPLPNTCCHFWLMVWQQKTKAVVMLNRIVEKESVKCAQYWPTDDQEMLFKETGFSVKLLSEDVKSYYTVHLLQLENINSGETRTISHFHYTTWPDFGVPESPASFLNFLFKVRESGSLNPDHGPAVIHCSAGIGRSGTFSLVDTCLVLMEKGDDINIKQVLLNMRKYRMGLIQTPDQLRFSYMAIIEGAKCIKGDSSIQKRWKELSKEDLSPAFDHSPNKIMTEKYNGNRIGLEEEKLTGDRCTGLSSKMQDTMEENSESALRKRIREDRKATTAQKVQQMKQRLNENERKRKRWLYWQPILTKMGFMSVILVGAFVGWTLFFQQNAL

[9] = target: Receptor-type tyrosine-protein phosphatase mu (Homo sapiens, UniProt P28827); assay: Inhibition of HPTP mu
[10] = target: T5, Receptor-type tyrosine-protein phosphatase C (Homo sapiens, UniProt P08575); assay: Inhibition of CD45
T5 sequence (P08575 whole entry): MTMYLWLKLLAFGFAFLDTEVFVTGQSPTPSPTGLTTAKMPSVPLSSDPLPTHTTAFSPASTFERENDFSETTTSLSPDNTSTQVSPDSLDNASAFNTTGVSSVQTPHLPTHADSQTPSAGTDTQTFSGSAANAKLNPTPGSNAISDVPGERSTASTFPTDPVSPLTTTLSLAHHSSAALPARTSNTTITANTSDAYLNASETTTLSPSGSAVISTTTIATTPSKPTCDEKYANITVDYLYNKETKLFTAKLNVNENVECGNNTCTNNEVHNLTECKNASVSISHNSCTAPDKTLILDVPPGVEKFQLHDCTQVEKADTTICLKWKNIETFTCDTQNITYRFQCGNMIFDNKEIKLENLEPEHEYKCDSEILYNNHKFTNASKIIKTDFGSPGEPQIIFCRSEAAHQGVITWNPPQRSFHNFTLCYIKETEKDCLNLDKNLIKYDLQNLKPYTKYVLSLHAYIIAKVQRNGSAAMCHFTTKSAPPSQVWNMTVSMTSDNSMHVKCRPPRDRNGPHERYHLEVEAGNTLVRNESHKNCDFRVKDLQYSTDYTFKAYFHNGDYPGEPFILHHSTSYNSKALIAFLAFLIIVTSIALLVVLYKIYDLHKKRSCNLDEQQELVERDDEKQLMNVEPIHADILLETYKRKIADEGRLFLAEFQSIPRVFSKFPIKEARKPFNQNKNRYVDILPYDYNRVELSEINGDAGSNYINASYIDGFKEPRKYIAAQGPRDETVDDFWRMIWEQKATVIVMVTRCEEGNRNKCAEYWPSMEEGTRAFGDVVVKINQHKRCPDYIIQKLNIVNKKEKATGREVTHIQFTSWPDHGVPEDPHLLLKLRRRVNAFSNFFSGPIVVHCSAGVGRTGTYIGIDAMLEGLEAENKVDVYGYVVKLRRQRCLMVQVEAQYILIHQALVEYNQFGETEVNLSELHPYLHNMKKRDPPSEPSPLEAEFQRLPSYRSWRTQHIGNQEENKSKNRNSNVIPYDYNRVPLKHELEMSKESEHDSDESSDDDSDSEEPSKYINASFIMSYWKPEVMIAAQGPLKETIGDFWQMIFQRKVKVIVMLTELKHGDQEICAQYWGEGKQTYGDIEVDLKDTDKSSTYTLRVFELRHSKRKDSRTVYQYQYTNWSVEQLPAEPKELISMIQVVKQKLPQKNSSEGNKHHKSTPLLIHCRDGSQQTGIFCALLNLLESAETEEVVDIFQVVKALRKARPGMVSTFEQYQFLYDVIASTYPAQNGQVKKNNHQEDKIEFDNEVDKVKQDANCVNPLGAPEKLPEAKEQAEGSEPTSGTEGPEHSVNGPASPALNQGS

[11] = target: T4, Tyrosine-protein phosphatase non-receptor type 2; assay: Inhibition of TCPTP
[12] = target: Receptor-type tyrosine-protein phosphatase alpha (Homo sapiens, UniProt P18433); assay: Inhibition HPTPA
Sequence of Receptor-type tyrosine-protein phosphatase alpha (P18433 whole entry): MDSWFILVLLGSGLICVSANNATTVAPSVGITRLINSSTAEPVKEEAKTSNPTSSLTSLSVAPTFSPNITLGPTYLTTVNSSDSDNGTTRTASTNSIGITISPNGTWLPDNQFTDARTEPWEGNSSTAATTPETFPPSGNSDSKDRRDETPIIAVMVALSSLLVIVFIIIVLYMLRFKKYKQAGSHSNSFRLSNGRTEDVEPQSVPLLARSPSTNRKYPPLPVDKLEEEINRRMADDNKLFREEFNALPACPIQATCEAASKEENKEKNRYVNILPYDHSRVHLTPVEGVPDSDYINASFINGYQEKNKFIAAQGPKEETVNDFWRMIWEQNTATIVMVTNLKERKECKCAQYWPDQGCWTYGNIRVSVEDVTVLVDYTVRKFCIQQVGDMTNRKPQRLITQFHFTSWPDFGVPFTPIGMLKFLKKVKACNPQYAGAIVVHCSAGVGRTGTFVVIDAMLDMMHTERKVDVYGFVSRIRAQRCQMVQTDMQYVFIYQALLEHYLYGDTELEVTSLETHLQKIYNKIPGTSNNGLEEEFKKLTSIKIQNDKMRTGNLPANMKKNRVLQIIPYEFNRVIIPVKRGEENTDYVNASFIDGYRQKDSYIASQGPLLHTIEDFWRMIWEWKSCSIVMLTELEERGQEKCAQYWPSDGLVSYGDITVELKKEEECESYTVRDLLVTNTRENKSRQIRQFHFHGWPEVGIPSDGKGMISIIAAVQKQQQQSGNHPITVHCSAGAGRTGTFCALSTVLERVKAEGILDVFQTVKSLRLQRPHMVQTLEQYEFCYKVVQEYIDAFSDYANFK

Sequence of Receptor-type tyrosine-protein phosphatase epsilon (P23469 whole entry): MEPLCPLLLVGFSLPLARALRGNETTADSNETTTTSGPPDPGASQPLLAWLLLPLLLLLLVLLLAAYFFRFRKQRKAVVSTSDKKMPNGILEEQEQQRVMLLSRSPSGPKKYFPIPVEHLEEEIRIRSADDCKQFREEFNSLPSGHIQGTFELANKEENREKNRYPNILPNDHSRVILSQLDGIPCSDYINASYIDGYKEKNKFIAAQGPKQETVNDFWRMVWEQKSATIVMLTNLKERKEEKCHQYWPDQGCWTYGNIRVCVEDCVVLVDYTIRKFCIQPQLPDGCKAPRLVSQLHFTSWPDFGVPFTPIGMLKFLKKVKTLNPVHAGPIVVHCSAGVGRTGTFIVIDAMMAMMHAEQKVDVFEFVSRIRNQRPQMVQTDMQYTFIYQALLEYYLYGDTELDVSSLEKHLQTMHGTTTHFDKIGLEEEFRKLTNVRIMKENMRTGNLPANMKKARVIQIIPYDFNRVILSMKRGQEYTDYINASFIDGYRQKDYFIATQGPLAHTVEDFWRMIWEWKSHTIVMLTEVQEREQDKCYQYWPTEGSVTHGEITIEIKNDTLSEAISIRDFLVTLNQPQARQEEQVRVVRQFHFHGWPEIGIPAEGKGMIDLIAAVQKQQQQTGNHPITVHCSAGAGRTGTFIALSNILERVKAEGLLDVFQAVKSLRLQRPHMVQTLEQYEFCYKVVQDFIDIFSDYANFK
T3 sequence (P10586 whole entry): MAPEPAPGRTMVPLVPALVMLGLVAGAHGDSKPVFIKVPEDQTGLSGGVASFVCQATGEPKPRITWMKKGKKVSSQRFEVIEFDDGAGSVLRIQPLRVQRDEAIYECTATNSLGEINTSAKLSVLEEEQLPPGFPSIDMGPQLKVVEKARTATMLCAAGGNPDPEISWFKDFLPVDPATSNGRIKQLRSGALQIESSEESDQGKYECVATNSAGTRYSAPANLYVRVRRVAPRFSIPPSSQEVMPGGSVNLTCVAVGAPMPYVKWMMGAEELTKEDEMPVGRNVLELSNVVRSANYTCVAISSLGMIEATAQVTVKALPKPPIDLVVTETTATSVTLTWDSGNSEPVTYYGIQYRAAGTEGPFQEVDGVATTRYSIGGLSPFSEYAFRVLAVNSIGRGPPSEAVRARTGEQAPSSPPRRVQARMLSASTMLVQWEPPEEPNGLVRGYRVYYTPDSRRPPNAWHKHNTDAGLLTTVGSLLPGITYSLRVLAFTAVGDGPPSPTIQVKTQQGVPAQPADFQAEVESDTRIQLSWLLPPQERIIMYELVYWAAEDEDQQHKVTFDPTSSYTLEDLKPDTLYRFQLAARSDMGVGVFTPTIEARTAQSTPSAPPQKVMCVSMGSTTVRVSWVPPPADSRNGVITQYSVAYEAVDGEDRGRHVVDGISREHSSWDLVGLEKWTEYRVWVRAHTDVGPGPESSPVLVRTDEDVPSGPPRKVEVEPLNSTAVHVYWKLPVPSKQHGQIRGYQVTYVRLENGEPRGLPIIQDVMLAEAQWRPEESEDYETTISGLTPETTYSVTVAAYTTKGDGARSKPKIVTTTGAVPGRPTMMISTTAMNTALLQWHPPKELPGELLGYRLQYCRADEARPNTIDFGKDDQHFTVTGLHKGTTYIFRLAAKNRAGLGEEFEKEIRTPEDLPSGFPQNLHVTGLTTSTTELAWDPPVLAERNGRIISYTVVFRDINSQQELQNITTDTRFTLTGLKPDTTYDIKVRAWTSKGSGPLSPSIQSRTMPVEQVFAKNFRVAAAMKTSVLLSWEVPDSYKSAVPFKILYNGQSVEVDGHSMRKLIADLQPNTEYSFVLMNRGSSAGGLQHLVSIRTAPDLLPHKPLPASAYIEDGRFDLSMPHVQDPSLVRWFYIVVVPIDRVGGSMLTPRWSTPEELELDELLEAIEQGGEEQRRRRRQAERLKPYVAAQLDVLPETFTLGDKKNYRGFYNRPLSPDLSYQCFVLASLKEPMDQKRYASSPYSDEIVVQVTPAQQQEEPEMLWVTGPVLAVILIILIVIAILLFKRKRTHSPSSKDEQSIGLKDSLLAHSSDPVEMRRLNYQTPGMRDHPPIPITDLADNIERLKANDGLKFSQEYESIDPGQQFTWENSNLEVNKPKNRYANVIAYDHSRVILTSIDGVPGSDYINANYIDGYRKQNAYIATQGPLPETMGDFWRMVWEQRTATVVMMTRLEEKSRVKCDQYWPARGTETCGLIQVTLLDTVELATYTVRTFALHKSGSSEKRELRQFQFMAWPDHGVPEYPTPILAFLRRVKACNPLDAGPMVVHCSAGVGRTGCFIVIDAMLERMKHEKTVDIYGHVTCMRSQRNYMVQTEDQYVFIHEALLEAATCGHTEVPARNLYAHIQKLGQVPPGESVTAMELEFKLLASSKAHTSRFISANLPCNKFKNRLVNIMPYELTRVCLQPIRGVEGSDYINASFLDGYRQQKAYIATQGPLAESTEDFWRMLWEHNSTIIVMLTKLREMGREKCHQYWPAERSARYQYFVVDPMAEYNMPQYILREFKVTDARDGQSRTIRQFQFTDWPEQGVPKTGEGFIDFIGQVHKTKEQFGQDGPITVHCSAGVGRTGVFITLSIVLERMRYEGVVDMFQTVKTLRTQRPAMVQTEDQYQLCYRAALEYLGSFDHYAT
Sequence of Receptor-type tyrosine-protein phosphatase gamma (P23470 whole entry): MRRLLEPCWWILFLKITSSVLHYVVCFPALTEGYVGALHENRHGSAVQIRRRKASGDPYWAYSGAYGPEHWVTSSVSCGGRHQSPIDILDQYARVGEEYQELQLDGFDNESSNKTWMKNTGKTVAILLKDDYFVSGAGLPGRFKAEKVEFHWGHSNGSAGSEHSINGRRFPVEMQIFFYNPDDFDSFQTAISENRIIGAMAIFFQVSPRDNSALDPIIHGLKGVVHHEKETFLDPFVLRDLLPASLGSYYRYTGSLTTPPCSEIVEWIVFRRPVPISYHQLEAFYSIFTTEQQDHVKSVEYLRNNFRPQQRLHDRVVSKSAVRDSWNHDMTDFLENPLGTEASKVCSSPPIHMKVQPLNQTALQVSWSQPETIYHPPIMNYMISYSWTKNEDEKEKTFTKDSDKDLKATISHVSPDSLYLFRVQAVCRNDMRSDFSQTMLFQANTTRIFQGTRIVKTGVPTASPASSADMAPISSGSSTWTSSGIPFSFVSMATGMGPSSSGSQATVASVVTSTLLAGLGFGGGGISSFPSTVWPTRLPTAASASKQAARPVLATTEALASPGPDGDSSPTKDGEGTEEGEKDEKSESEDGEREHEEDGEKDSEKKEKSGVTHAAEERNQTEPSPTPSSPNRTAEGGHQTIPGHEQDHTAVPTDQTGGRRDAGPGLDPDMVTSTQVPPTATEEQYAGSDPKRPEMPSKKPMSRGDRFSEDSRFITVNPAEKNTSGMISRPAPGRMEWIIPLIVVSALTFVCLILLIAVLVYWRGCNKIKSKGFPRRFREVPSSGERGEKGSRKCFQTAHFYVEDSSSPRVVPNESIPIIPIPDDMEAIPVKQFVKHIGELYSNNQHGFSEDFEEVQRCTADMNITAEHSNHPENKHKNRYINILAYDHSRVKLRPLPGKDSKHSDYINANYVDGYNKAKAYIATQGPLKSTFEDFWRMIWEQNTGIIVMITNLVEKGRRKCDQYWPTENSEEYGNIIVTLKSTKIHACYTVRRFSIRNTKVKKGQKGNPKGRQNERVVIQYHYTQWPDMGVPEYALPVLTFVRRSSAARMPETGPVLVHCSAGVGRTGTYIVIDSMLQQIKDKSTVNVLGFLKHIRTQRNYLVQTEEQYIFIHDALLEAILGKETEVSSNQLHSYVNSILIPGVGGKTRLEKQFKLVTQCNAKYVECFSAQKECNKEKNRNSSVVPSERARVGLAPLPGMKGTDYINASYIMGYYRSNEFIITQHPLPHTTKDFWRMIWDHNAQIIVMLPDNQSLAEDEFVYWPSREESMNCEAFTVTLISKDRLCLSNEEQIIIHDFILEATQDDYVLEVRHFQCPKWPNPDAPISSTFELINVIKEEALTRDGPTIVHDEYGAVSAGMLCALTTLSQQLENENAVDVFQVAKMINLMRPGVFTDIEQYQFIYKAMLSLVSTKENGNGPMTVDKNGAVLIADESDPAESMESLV

## COC(=O)C(Cc1ccc(NS(=O)(=O)O)cc1)C(=O)OC
[1]
  IC50: 1 µM

## COC(=O)C(Cc1ccc(NS(=O)(=O)O)cc1)(Cc1ccc(C(=O)O)cc1)C(=O)OC
[1]
  IC50: 0.14 µM

## COc1ccc(CC(Cc2ccc(NS(=O)(=O)O)cc2)(c2nc(C)no2)c2nc(C)no2)cc1
[1]
  IC50: 0.34 µM

## COC(=O)C(Cc1ccc(NS(=O)(=O)O)cc1)(Cc1cccc(S(N)(=O)=O)c1)C(=O)OC
[1]
  IC50: 0.3 µM

## CCOC(=O)C(Cc1ccc(NS(=O)(=O)O)cc1)(NC(=O)OC(C)(C)C)C(=O)OC (configuration not stated)
[1]
  IC50: 0.45 µM

## COC(=O)C(CCCS(=O)(=O)c1ccccc1)(Cc1ccc(NS(=O)(=O)O)cc1)C(=O)OC
[1]
  IC50: 0.15 µM

## COc1cccc(CC(Cc2ccc(NS(=O)(=O)O)cc2)(c2nc(C)no2)c2nc(C)no2)c1
[1]
  IC50: 0.23 µM

## CCOC(=O)C(Cc1ccc(NS(=O)(=O)O)cc1)(NC(=O)OCc1ccccc1)C(=O)OC (configuration not stated)
[2]
  IC50: 12.8 µM
[3]
  IC50: 82.2 µM
[4]
  IC50: > 500 µM
[5]
  IC50: 227 µM
[6]
  IC50: 472 µM
[7]
  IC50: 196 µM
[8]
  IC50: 78 µM
[9]
  IC50: > 500 µM
[10]
  IC50: 280 µM
[1]
  IC50: 0.4 µM

## COC(=O)C(Cc1ccncc1)(Cc1ccc(NS(=O)(=O)O)cc1)C(=O)OC
[1]
  IC50: 0.57 µM

## CCOC(=O)C(CCNC(=O)OC(C)(C)C)(Cc1ccc(NS(=O)(=O)O)cc1)C(=O)OC (configuration not stated)
[1]
  IC50: 0.09 µM

## COC(=O)C(CCCSc1nnnn1-c1ccccc1)(Cc1ccc(NS(=O)(=O)O)cc1)C(=O)OC
[1]
  IC50: 0.2 µM

## COC(=O)C(Cc1ccc(NS(=O)(=O)O)cc1)(Cc1ccc(OC)cc1)C(=O)OC
[1]
  IC50: 0.39 µM

## COC(=O)C(Cc1ccc(NS(=O)(=O)O)cc1)(Cc1cccc(OC)c1)C(=O)OC
[1]
  IC50: 0.33 µM

## Cc1noc(C(Cc2ccc(NS(=O)(=O)O)cc2)(Cc2ccc(NS(=O)(=O)O)cc2)c2nc(C)no2)n1
[1]
  IC50: 0.08 µM

## COC(=O)C(Cc1ccc(NS(=O)(=O)O)cc1)(Cc1ccc(NS(=O)(=O)O)cc1)C(=O)OC
[1]
  IC50: 0.06 µM

## COC(=O)C(Cc1ccc(NS(=O)(=O)O)cc1)(Cc1cccc(NS(=O)(=O)O)c1)C(=O)OC
[1]
  IC50: 0.1 µM

## COC(=O)CCCC(Cc1ccc(NS(=O)(=O)O)cc1)(C(=O)OC)C(=O)OC
[1]
  IC50: 0.38 µM

## COC(=O)C(CCCS(=O)(=O)c1nnnn1-c1ccccc1)(Cc1ccc(NS(=O)(=O)O)cc1)C(=O)OC
[1]
  IC50: 0.08 µM

## COC(=O)C(CCCS(C)(=O)=O)(Cc1ccc(NS(=O)(=O)O)cc1)C(=O)OC
[1]
  IC50: 0.42 µM

## COC(=O)C(Cc1ccc(NS(=O)(=O)O)cc1)(Cc1ccc(S(N)(=O)=O)cc1)C(=O)OC
[1]
  IC50: 0.43 µM

## CCOC(=O)CC(Cc1ccc(NS(=O)(=O)O)cc1)(C(=O)OC)C(=O)OC
[2]
  IC50: 16.2 µM
[3]
  IC50: 4.8 µM
[4]
  IC50: > 500 µM
[5]
  IC50: 288 µM
[6]
  IC50: > 500 µM
[7]
  IC50: 200 µM
[8]
  IC50: 109 µM
[9]
  IC50: > 500 µM
[10]
  IC50: 126 µM
[1]
  IC50: 0.23 µM

## COC(=O)C(Cc1ccccc1)(Cc1ccc(NS(=O)(=O)O)cc1)C(=O)OC
[2]
  IC50: 6.1 µM
[11]
  IC50: 19.4 µM
[12]
  IC50: 0.9 µM

## COC(=O)c1cccc(CC(Cc2ccc(NS(=O)(=O)O)cc2)(C(=O)OC)C(=O)OC)c1
[1]
  IC50: 0.29 µM

## Cc1noc(C(Cc2ccc(NS(=O)(=O)O)cc2)(Cc2cccc(C#N)c2)c2nc(C)no2)n1
[1]
  IC50: 0.21 µM

## COC(=O)C(CCCc1ccccc1)(Cc1ccc(NS(=O)(=O)O)cc1)C(=O)OC
[2]
  IC50: 2.3 µM
[3]
  IC50: 7.7 µM
[4]
  IC50: > 500 µM
[5]
  IC50: 409 µM
[6]
  IC50: > 500 µM
[7]
  IC50: 93 µM
[8]
  IC50: 15.3 µM
[9]
  IC50: > 500 µM
[10]
  IC50: 29 µM
[1]
  IC50: 0.15 µM

## COC(=O)C(COCc1ccccc1)(Cc1ccc(NS(=O)(=O)O)cc1)C(=O)OC
[1]
  IC50: 0.27 µM

## Cc1noc(C(CCCc2ccccc2)(Cc2ccc(NS(=O)(=O)O)cc2)c2nc(C)no2)n1
[1]
  IC50: 0.07 µM

## COC(=O)c1ccc(CC(Cc2ccc(NS(=O)(=O)O)cc2)(C(=O)OC)C(=O)OC)cc1
[1]
  IC50: 0.41 µM
